Data from article PMC11874377, “Fungal-derived methyldeoxaphomins target Plasmodium falciparum segregation through the inhibition of PfActin1” (Proceedings of the National Academy of Sciences of the …, 2025).
“And” between values parts separate entries of the source, which are not always exact repeats. Identical values can stand only once. Like-named read-outs stand apart in the source and are kept apart here.

How the values were obtained:
P. falciparum [1] = assay: Isobologram assay with NPDG-F; format: cell-based, Plasmodium falciparum; conditions: for IC50: single compounds, dose–response, Fig. 3A, read-out: Mean IC50 ± SEM; for relationship with NPDG-F at low concentrations: low / very low concentrations; for relationship with NPDG-F at higher concentrations: moderate to high / higher concentrations
Procedure: To further explore the relationship of NPDG-F with established actin-interfering drugs, an isobologram study was performed (Fig. 3). NPDG-F was added in combination with four inhibtors known to interfere with actin polymerization including a formin inhibitor SMIFH2, cofilin inhibitor SZ-3, F-actin targeting compound jasplakinolide, and G-actin targeting latrunculin B. The frontline antimalarial DHA was also added as a nonactin inhibitor control. After dose–response curves were generated (Fig. 3A), the fractional inhibitory concentrations (FICs) of NPDG-F and the combination drug were calculated and graphed. […]
(§1) Plasmodium blood stage culture
(§2) Parasite culture in the Chakrabarti lab was maintained following a modified Trager and Jensen protocol (Trager & Jensen, 1976) as previously described (Lee et al., 2021) with RPMI 1640 with 25 mM HEPES pH 7.4, 26 mM NaHCO3, 15 mg/L hypoxanthine, 0.5% Albumax II, 25 mg/L gentamycin, and 2% dextrose. Parasites were grown with human A+ erythrocytes obtained from Florida OneBlood. Cultures were kept in an incubator with 5% […]
(§3) Antiplasmodial activity screening
(§4) SYBR Green I-based fluorescence assay was performed as previously described (Lee et al., 2021) following protocols by Smilkstein et. al. (Smilkstein et al., 2004). Asynchronous Dd2 parasites were added to serially diluted compounds and incubated for 72 h at 5% CO2, 95% air at 37°C. Plates were then frozen at -80°C, thawed, and incubated for one hour with 1x SYBR Green I in a lysis buffer (20 mM Tris-HCL, 0.08% saponin, 5 mM EDTA, and 0.8% Triton X-100). Fluorescence was then read on a Synergy Neo2 multimode reader (BioTek Winsooki, VT). Compound dose response curves and EC50 determination was performed using CDD Vault normalized to 10 µM CQ and vehicle […]
For isobologram assessment, inhibitors were tested using a 1:2 dilution with starting concentrations selected as 40 nM for DHA, 100 µM Latrunculin B, 100 µM SMIFH2, and 40 nM for jasplakinolide. These concentrations were selected to provide 2-3 points above […]
EC50s. The test inhibitor methyldeoxaphomin NPDG-F was then added in combination with the aforementioned inhibitors at concentrations ranging from 10 to 0.3125 µM. Dose-response curves were then generated for the available conditions where EC50s could be determined. The fractional inhibitor concentration of both compounds was then determined as described (Fivelman et al., 2004) for the available points and graphed on a scale of 0-1 also using Graphpad Prism version 10. […]

P. falciparum [2] = assay: Parasite reduction ratio (PRR); format: cell-based, Plasmodium falciparum; conditions: 10 × EC50
Procedure: After a 24 h lag phase, only 10^0.64 parasites are killed within the first replication cycle (48 h). […] We also examined the in vitro killing rate in Dd2 through flow cytometric analysis. […]
Parasite reduction ratio adapted from protocol by Sanz et al (Sanz et al., 2012). In brief, early ring stage mono-infected RBCs at 106 were incubated with a 10 x EC50 concentration of NPDG-F, DHA, or atovaquone for either 24, 48, 72, 96, or 120 h. Following incubations, cells were washed and serially diluted. After 3 weeks, growth was determined via SYBR […]
Green I staining. […]

[3] = system: P. falciparum chloroquine-sensitive line 3D7; assay: SYBR Green I-based antiplasmodial assay, asexual blood stage, 3D7; format: cell-based, Plasmodium falciparum
Procedure: (§5) The antiplasmodial activity of these analogs was assessed in P. falciparum asexual blood stage using a SYBR Green I-based assay. Compounds were tested in both the multidrug resistant line Dd2, and the chloroquine-sensitive line 3D7, to probe any potential for preexisting resistance. […] These methyldeoxaphomin analogs were also cross-screened for cytotoxicity in the human cell line HepG2 to determine their selectivity for the Plasmodium parasite. […] This effect was maintained with analog NPDG-F where both R1 and R2 were substituted with OH groups. […] In addition, the hydroxyl group at carbon 7 seems to be critical for function as a drastic loss of potency was found in NPDG-D as compared to B and C. […]
as §1, §2, §3
as §4, with “VT).” for “VT). Compound dose response curves and EC50 determination was performed using CDD Vault normalized to 10 µM CQ and vehicle”

[4] = system: P. falciparum multidrug resistant line Dd2; assay: SYBR Green I-based antiplasmodial assay, asexual blood stage, Dd2; format: cell-based, Plasmodium falciparum
Procedure: as §5, §1, §2, §3
as §4, with “VT).” for “VT). Compound dose response curves and EC50 determination was performed using CDD Vault normalized to 10 µM CQ and vehicle”

[5] = system: human HepG2 hepatoma cells; assay: cells; format: cell-based
Procedure: as §5
Cytotoxicity was assessed using an MTS (3-(4,5-Dimethylthiazol-2-yl)-5-(3-carboxymethoxyphenyl)-2-(4-sulfophenyl)-2H-tetrazolium) absorbance assay with human HepG2 hepatoma cells. Cells were maintained in MEM supplemented with 10%FBS, 1% Antibiotic/Antimycotic, 1 mM sodium pyruvate, and 0.15% sodium bicarbonate in a 5 % CO2, 95% air environment at 37°C. For the assay cells were seeded at a density of 2,250 cells per well on 384-well microtiter plates 24 h prior to compound addition. Following a 48-h incubation with compounds, MTS solution was added to wells and absorbance was read after 2-4 h on a Synergy Neo2 multimode reader (BioTek Winsooki, VT). Compound dose response curves and EC50 determination was performed using CDD Vault normalized to 5% triton and vehicle controls. […]

[6] = Plasmodium falciparum, 3D7, average ± SEM of three replicates, read-out: 3D7: Average EC50
[7] = Plasmodium falciparum, 3D7, individual replicates, read-out: 3D7: EC50
[8] = Plasmodium falciparum, 3D7, means from triplicate experiments ± SEM, read-out: 3D7 EC50
[9] = Plasmodium falciparum, DD2, 72 h, read-out: Dd2 EC50, means from triplicate experiments ± SEM, 72 h
[10] = Plasmodium falciparum, DD2, read-out: Dd2: Average EC50, average ± SEM of three replicates
[11] = Plasmodium falciparum, DD2, read-out: Dd2: EC50, individual replicates
[12] = Homo sapiens, HepG2, 48 h, means from triplicate experiments ± SEM, 48-h incubation, read-out: HepG2 EC50
[13] = Homo sapiens, HepG2, average ± SEM of three replicates, read-out: HepG2: Average EC50
[14] = Homo sapiens, HepG2, individual replicates, read-out: HepG2: EC50
[15] = individual replicates, read-out: HepG2: EC50

| SMILES | EC50 [3, 6] | EC50 [3, 7] | EC50 [3, 8] | EC50 [4, 9] | EC50 [4, 10] | EC50 [4, 11] | EC50 [5, 12] | EC50 [5, 13] | EC50 [5, 14] | further results |
| --- | --- | --- | --- | --- | --- | --- | --- | --- | --- | --- |
| C[C@H]1[C@@H](O)O[C@@H]2O[C@@]3(C)CC[C@H]4[C@H](C)CC[C@@H]1[C@@]24OO3 [DHA, dihydroartemisinin] |  |  |  |  |  |  |  |  |  | IC50 (P. falciparum [1]; Plasmodium falciparum): 0.005 ± 0.001 µM; relationship with NPDG-F at low concentrations (P. falciparum [1]): somewhat synergistic; relationship with NPDG-F at higher concentrations (P. falciparum [1]): antagonistic; 99.9% PCT (parasite clearance time) (P. falciparum [2]): 32.5 h; lag phase (P. falciparum [2]): 0 h |
| C=C1[C@@H](C)[C@H]2[C@H](Cc3ccccc3)NC(=O)[C@]23C(=O)/C=C/C(=O)C[C@@H](C)C[C@H](C)C/C=C/[C@H]3[C@@H]1O [Methyldeoxaphomin NPDG-A] | > 5 µM | > 5 µM | > 5 µM | > 5 µM | > 5 µM | > 5 µM | > 25 µM | > 25 µM | > 25 µM | cytotoxicity in HepG2 at the highest concentration tested ([5]; 25 µM): no inhibition |
| CC1CC=CC2C=C(CO)C(C)C3C(Cc4ccccc4)NC(=O)C23C(=O)C=CC(=O)C(O)C(C)C1 (stereo not shown) [Methyldeoxaphomin NPDG-D] | > 5 µM | > 5 µM | > 5 µM | > 5 µM | > 5 µM | > 5 µM | 8.2 µM | 8.2 ± 0.07 µM | 8.3 µM | EC50 [5, 15]: 8.1 µM |
| C=C1C(C)C2C(Cc3ccccc3)NC(=O)C23C(=O)C=CC(O)CC(C)CC(C)CC=CC3C1O (stereo not shown) [Methyldeoxaphomin NPDG-E] | 2.8 ± 0.14 µM | 2.67 µM | 2.8 ± 0.14 µM | 2.6 µM | 2.6 ± 0.31 µM | 2.22 µM | 23 µM | 23 ± 0.92 µM | 21.3 µM | EC50 ([3]; individual replicates, read-out: 3D7: EC50): 2.6 µM and 3.04 µM; EC50 ([4]; read-out: Dd2: EC50, individual replicates): 3.18 µM and 2.28 µM; Selectivity Index (SI) ([5]; HepG2 EC50/(mean of Dd2 EC50, 3D7 EC50)): 9; EC50 [5, 15]: 24.7 µM and 23.2 µM |
| O=C1NC(=S)N(c2cccc(Br)c2)C(=O)/C1=C/c1ccco1 [SMIFH2] |  |  |  |  |  |  |  |  |  | relationship with NPDG-F at low concentrations (P. falciparum [1]): primarily indifferent; relationship with NPDG-F at higher concentrations (P. falciparum [1]): antagonistic; IC50 (P. falciparum [1]): 11.3 ± 1.35 µM |
| O=C1C(O)=C([C@H]2CC[C@H](c3ccc(Cl)cc3)CC2)C(=O)c2ccccc21 [atovaquone] |  |  |  |  |  |  |  |  |  | 99.9% PCT (parasite clearance time) (P. falciparum [2]): more than 96 h; lag phase (P. falciparum [2]): 24 h; log(PRR) (P. falciparum [2]): 5.12 |
| C/C1=C/C(=O)O[C@@H]2C[C@@H](CC[C@H](C)/C=C\CC1)O[C@@](O)([C@@H]1CSC(=O)N1)C2 [latrunculin B] |  |  |  |  |  |  |  |  |  | fractional inhibitory concentration (FIC) (P. falciparum [1]; combination with NPDG-F): highest FIC values overall; IC50 (P. falciparum [1]): 34.1 ± 1.51 µM |
